These results are taken from patent US20130012546A1 (priority 2009, published 2013).

Series [1] relates to Phytophthora infestans. The format is in vivo. The note with it: tomato plants, preventive spray, 100 ppm of active ingredient, evaluated 7 days after inoculation.
The nature of series [2]: logP(HCOOH) by HPLC. The note with it: for log p: HPLC on reversed phase columns, pH 2.7, 0.1% formic acid in water / acetonitrile, linear gradient 10% to 95% acetonitrile, EEC directive 79/831 Annex V.A8. The format is physicochemical.

In series [1], `Cc1nnnn1C(=NOCc1cccc(NC(=O)COC2CCCCCC2)n1)c1ccccc1` [Example 88] gave an Efficacy % of 95%. For the same molecule, the log p in series [2] was determined as 4.67.

In series [1], `CC(OC1CCCCC1)C(=O)Nc1cccc(CON=C(c2ccccc2)c2nnnn2C)n1` (centres unmarked) [Example 99] displayed an Efficacy % of 90%. Further, the log p in series [2] was determined as 4.49.

As to `C#CCOC(C)C(=O)Nc1cccc(CO/N=C(/c2ccccc2)n2nnnc2C)n1` (centres unmarked) [Example 52], in series [1], the Efficacy % is reported as 93%. This molecule also displayed a log p in series [2] of 3.11.

Regarding `C=CCCOCC(=O)Nc1nc(CO/N=C(/c2ccccc2)n2nnnc2C)cs1` [Example 44], the Efficacy % in series [1] was determined as 93%. Further, the log p in series [2] is reported as 3.23.

For `Cc1nnnn1C(=NOCc1csc(NC(=O)C(C)OC2CCCCC2)n1)c1ccccc1` (centres unmarked) [Example 94], the Efficacy % in series [1] was 93%. The molecule also returned a log p in series [2] of 4.21.

In the case of `CON=C(C(=O)Nc1nc(CON=C(c2ccccc2)n2nnnc2C)cs1)c1ccc(Cl)cc1Cl` [Example 23], the Efficacy % in series [1] was found to be 90%. The log p in series [2] is recorded as 4.49.

On to `Cn1nnnc1C(=NOCc1cccc(NC(=O)COC2CCCCCC2)n1)c1ccccc1` [Example 90], for which the Efficacy % in series [1] was 100%. In addition, the log p in series [2] is recorded as 4.56.

Molecule `C#CCOCC(=O)Nc1nc(CON=C(c2ccccc2)c2nnnn2C)cs1` [Example 13] came in with an Efficacy % in series [1] of 85%. The molecule also registered a log p in series [2] of 2.64.

With `Cn1nnnc1C(=NOCc1csc(NC(=O)OCC2CCCCC2)n1)c1ccccc1` [Example 61], the Efficacy % in series [1] is 98%. Also, in series [2], the log p amounted to 4.37.

Take `Cc1nnnn1C(=NOCc1csc(NC(=O)OCC2CC2)n1)c1ccccc1` [Example 26]: in series [1], the Efficacy % amounted to 70%. Moreover, in series [2], the log p was 3.27.

`CON=C(C(=O)Nc1nc(CON=C(c2ccccc2)c2nnnn2C)cs1)c1ccc(Br)cc1` [Example 8] gave an Efficacy % in series [1] of 93%. The molecule further had a log p in series [2] of 4.37.

`Cc1nnnn1/C(=N\OCc1csc(NC(=O)OC(C)CC2CC2)n1)c1ccccc1` (centres unmarked) [Example 56] had an Efficacy % in series [1] of 95%. In series [2], this molecule displayed a log p of 3.87.

`Cc1nnnn1C(=NOCc1cccc(NC(=O)OCC2CC2)n1)c1ccccc1` [Example 17] had an Efficacy % in series [1] of 93%. Further, in series [2], the log p is 3.52.

In series [1], `C=CCCOC(C)C(=O)Nc1cccc(CO/N=C(/c2ccccc2)c2nnnn2C)n1` (centres unmarked) [Example 41] returned an Efficacy % of 100%. The same molecule had a log p in series [2] of 3.69.

In the case of `CC(OC1CCCC1)C(=O)Nc1nc(CO/N=C(/c2ccccc2)c2nnnn2C)cs1` (centres unmarked) [Example 97, 2-(cyclopentyloxy)-N-{4-[({[(Z)-(1-methyl-1H-tetrazol-5-yl)(phenyl)methylene]amino}oxy)methyl]-1,3-thiazol-2-yl}propanamide], in series [1], the Efficacy % was found to be 95%. Further, the chromatographic logP in series [2] (reversed phase HPLC column, pH 2.7, HCOOH, read-out: logP(HCOOH)) stood at 3.8.

Regarding `CON=C(C(=O)Nc1nc(CON=C(c2ccccc2)c2nnnn2C)cs1)c1ccc(Cl)cc1Cl` [Example 9], the Efficacy % in series [1] is 95%. Also, the log p in series [2] came out at 4.41.

In series [1], `Cc1nnnn1C(=NOCc1csc(NC(=O)C(C)OC2CCCCCC2)n1)c1ccccc1` (centres unmarked) [Example 96] registered an Efficacy % of 98%. Moreover, the log p in series [2] came out at 4.58.

Take `CON=C(C(=O)Nc1cccc(CON=C(c2ccccc2)c2nnnn2C)n1)c1ccccc1Cl` [Example 2]: the Efficacy % in series [1] is 98%. This molecule also registered a log p in series [2] of 4.13.

Turning to `CON=C(C(=O)Nc1nc(CON=C(c2ccccc2)c2nnnn2C)cs1)c1ccc(Cl)cc1` [Example 7], the Efficacy % in series [1] is on record as 95%. In series [2], this molecule yielded a log p of 4.27.

`C=CCCOC(C)C(=O)Nc1nc(CO/N=C(/c2ccccc2)n2nnnc2C)cs1` (centres unmarked) [Example 43]: the Efficacy % in series [1] came out at 95%. This molecule had a log p in series [2] of 3.53.

`Cn1nnnc1C(=NOCc1csc(NC(=O)COC2CCC2)n1)c1ccccc1` [Example 80]: the Efficacy % in series [1] came to 90%. In addition, the log p in series [2] was 3.19.

In turn, `CC1CCC(C(C)C)C(OCC(=O)Nc2nc(CON=C(c3cccc(F)c3)c3nnnn3C)cs2)C1` (centres unmarked) [Example 109] gave an Efficacy % in series [1] of 84%. The same molecule came in with a log p in series [2] of 5.47.

In series [1], `CC(C)=NOC(C)C(=O)Nc1nc(CO/N=C(/c2ccccc2)c2nnnn2C)cs1` (centres unmarked) [Example 35] had an Efficacy % of 95%. Besides, the log p in series [2] is recorded as 3.11.

As for `CC1CCC(C(C)C)C(OCC(=O)Nc2nc(CON=C(c3ccccc3)c3nnnn3C)cs2)C1` (centres unmarked) [Example 107], the Efficacy % in series [1] came to 95%. In series [2], this molecule came in with a log p of 5.39.

In series [1], `Cc1nnnn1C(=NOCc1cccc(NC(=O)COC2CCCC2)n1)c1ccccc1` [Example 87] showed an Efficacy % of 90%. For the same molecule, the log p in series [2] is on record as 3.92.

In the case of `Cn1nnnc1C(=NOCc1cccc(NC(=O)COC2CCCC2)n1)c1ccccc1` [Example 85], the Efficacy % in series [1] was 95%. The molecule also showed a log p in series [2] of 3.83.

For `CC(C)=NOC(C)C(=O)Nc1cccc(CO/N=C(/c2ccccc2)c2nnnn2C)n1` (centres unmarked) [Example 32], the Efficacy % in series [1] is 70%. The log p in series [2] was determined as 3.25.

Regarding `C#CCOCC(=O)Nc1cccc(CON=C(c2ccccc2)n2nnnc2C)n1` [Example 22], in series [1], the Efficacy % was 70%. In series [2], this molecule yielded a log p of 2.86.

In series [1], `Cc1nnnn1C(=NOCc1csc(NC(=O)OCCC2CCCCC2)n1)c1ccccc1` [Example 24] yielded an Efficacy % of 88%. In addition, the log p in series [2] is listed as 4.8.

As for `C=CCCCOCC(=O)Nc1cccc(CON=C(c2ccccc2)c2nnnn2C)n1` [Example 5], in series [1], the Efficacy % is recorded as 95%. Further, in series [2], the log p is 3.78.

Molecule `C#CCOCC(=O)Nc1cccc(CON=C(c2ccccc2)c2nnnn2C)n1` [Example 4] registered an Efficacy % in series [1] of 85%. Moreover, the log p in series [2] amounted to 2.8.

`C=CCCOCC(=O)Nc1cccc(CO/N=C(/c2ccccc2)c2nnnn2C)n1` [Example 40] registered an Efficacy % in series [1] of 85%. For the same molecule, the log p in series [2] stood at 3.39.

The molecule `Cc1nnnn1C(=NOCc1cccc(NC(=O)COC2CCC2)n1)c1ccccc1` [Example 83] returned an Efficacy % in series [1] of 90%. Besides, in series [2], the log p was 3.55.

Consider `CON=C(C(=O)Nc1cccc(CON=C(c2ccccc2)c2nnnn2C)n1)c1ccc(Cl)cc1` [Example 3], for which the Efficacy % in series [1] stood at 75%. The log p in series [2] was 4.51.

Regarding `CC(=NOCC(=O)Nc1cccc(CON=C(c2ccccc2)c2nnnn2C)n1)c1ccccc1` [Example 33], in series [1], the Efficacy % was 80%. For the same molecule, the log p in series [2] was 3.92.

With `CC(OC1CCCC1)C(=O)Nc1cccc(CON=C(c2ccccc2)c2nnnn2C)n1` (centres unmarked) [Example 98], the Efficacy % in series [1] amounted to 98%. The molecule further registered a log p in series [2] of 4.11.

As for `Cc1nnnn1C(=NOCc1cccc(NC(=O)OCCCC2CCCCC2)n1)c1ccccc1` [Example 19], in series [1], the Efficacy % is given as 95%. For the same molecule, in series [2], the log p stood at 5.62.

In the case of `CON=C(C(=O)Nc1nc(CON=C(c2ccccc2)n2nnnc2C)cs1)c1ccccc1Cl` [Example 27], in series [1], the Efficacy % is reported as 85%. The same molecule had a log p in series [2] of 3.92.

For `Cn1nnnc1C(=NOCc1cccc(NC(=O)COC2CCCCC2)n1)c1ccccc1` [Example 77], the Efficacy % in series [1] is reported as 93%. In series [2], this molecule returned a log p of 4.15.

Regarding `CON=C(C(=O)Nc1nc(CON=C(c2ccccc2)c2nnnn2C)cs1)c1cccc(Cl)c1Cl` [Example 11], the Efficacy % in series [1] was determined as 95%. Also, in series [2], the log p was determined as 4.27.

The molecule `CC(C)=NOC(C)C(=O)Nc1nc(CO/N=C(/c2ccccc2)n2nnnc2C)cs1` (centres unmarked) [Example 38] showed an Efficacy % in series [1] of 88%. Besides, in series [2], the log p is 3.17.

In turn, `CC(=NOCC(=O)Nc1nc(CON=C(c2ccccc2)n2nnnc2C)cs1)C(C)(C)C` [Example 37] had an Efficacy % in series [1] of 88%. In addition, in series [2], the log p is 4.04.

In series [1], `Cn1nnnc1C(=NOCc1cccc(NC(=O)COC2CCC2)n1)c1ccccc1` [Example 81] returned an Efficacy % of 80%. Besides, the log p in series [2] is listed as 3.46.

`C#CCOC(C)C(=O)Nc1cccc(CO/N=C(/c2ccccc2)c2nnnn2C)n1` (centres unmarked) [Example 50] displayed an Efficacy % in series [1] of 95%. Further, the log p in series [2] worked out at 3.04.

In turn, `CC(=NOCC(=O)Nc1nc(CON=C(c2ccccc2)c2nnnn2C)cs1)c1ccccc1` [Example 36] showed an Efficacy % in series [1] of 95%. In series [2], the log p was found to be 3.76.

`Cc1nnnn1C(=NOCc1cccc(NC(=O)OCCC2CCCCC2)n1)c1ccccc1` [Example 15] came in with an Efficacy % in series [1] of 95%. Moreover, the log p in series [2] is on record as 5.19.

Regarding `CON=C(C(=O)Nc1cccc(CON=C(c2ccccc2)c2nnnn2C)n1)c1ccc(Cl)cc1Cl` [Example 1], in series [1], the Efficacy % worked out at 95%. In series [2], this molecule had a log p of 4.7.

With `CC(=NOCC(=O)Nc1nc(CON=C(c2ccccc2)c2nnnn2C)cs1)C(C)(C)C` [Example 34], the Efficacy % in series [1] came to 90%. The log p in series [2] was 3.99.

In series [1], `Cc1nnnn1C(=NOCc1csc(NC(=O)COC2CCC2)n1)c1ccccc1` [Example 82] had an Efficacy % of 90%. In series [2], this molecule came in with a log p of 3.25.

For `Cc1nnnn1C(=NOCc1cccc(NC(=O)COC2CCCCC2)n1)c1ccccc1` [Example 79], the Efficacy % in series [1] was found to be 90%. The log p in series [2] amounted to 4.25.

Consider `Cc1nnnn1C(=NOCc1cccc(NC(=O)OCCCC2CCCC2)n1)c1ccccc1` [Example 21], for which the Efficacy % in series [1] was found to be 95%. Also, in series [2], the log p is 5.25.

Turning to `Cc1nnnn1C(=NOCc1csc(NC(=O)OCC2CCCCC2)n1)c1ccccc1` [Example 25], in series [1], the Efficacy % amounted to 93%. For the same molecule, the log p in series [2] worked out at 4.41.
